Key:
[1] = biological target: T1, HCV NS5B RdRp genotype 1b (Hepatitis C virus genotype 1b, UniProt Q9WMX2); test: HCV NS5B RdRp enzyme assay (standard / modified); assay type: biochemical; conditions: HCV NS5B genotype 1b
T1 construct: The protein was expressed with an 18 amino acid C-terminal truncation to enhance the solubility; made in house; host or cells: E. coli BL21(DE3), pET21a vector
Method in brief: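 Genotype 1b NS5B with an 18-aa C-terminal truncation, expressed in E. coli, was tested by SPA incorporation of 3H-UTP (0.29 μM) on polyA/biotin-oligo-dT12. Standard assay: 28 nM enzyme, 6 nM template, 180 nM primer, 60 min at 30 °C, pH 7.5, 2% DMSO. Modified assay: 14 nM enzyme added to compound first, 0.2 nM template, 20 nM bead-precaptured primer, 4 h at 30 °C. IC50 used seven inhibitor concentrations.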

HCV replicon cells = test: HCV replicon assay (FRET or luciferase readout); assay type: cell-based; conditions: Hepatitis C virus
Method in brief: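 Trypsinized replicon cells were seeded with compound titrations and incubated at 37 °C for various times. Alamar blue was added to gauge toxicity. Plates were then rinsed and either lysed with FRET peptide reagent for kinetic fluorescence reading or switched to phenol red-free DMEM for luciferase measurement.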

T1 sequence (Q9WMX2 2420-2992): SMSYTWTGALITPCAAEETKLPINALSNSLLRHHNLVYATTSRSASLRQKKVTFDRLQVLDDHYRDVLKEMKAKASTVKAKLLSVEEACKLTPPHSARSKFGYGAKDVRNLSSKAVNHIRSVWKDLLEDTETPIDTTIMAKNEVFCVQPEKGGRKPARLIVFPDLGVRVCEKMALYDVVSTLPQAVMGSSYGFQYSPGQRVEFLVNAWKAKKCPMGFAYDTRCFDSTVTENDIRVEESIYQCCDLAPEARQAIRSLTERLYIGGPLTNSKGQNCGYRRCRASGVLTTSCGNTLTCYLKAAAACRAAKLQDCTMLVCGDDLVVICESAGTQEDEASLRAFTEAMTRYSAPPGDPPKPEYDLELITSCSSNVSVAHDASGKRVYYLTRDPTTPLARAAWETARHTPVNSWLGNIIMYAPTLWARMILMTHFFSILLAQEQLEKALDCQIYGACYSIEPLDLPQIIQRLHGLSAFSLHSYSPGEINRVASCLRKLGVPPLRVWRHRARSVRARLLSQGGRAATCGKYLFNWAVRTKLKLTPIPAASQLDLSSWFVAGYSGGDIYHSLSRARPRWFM

| SMILES | IC50 ([1]; Table 1) | EC50 (HCV replicon cells; Table 1) | IC50 ([1]; Table 2) | EC50 (HCV replicon cells; Table 2) |
| --- | --- | --- | --- | --- |
| CNC(=O)c1c(-c2ccc(F)cc2)nn2cc(N(CCO)S(C)(=O)=O)c(C3CC3)cc12 | 2 to 250 nM | 1000 to 10000 nM |  |  |
| CNC(=O)c1c(-c2ccc(F)cc2)nn2c(F)cc(-c3cc(C(=O)NC4(c5ccccn5)CC4)ccc3C)cc12 | 2 to 250 nM | 2 to 250 nM |  |  |
| CNC(=O)c1c(-c2ccc(F)cc2)nn2ccc(-c3cccc(C(=O)NC4(c5ccccc5)CC4)c3)cc12 | 2 to 250 nM | 2 to 250 nM |  |  |
| CNC(=O)c1c(-c2ccc(F)cc2)nn2ccc(NC(=O)c3cccc(OC)c3)cc12 | > 10000 nM | > 10000 nM |  |  |
| CCN(c1cn2nc(-c3ccc(F)cc3)c(C(=O)NC)c2cc1-c1cccc(C(=O)NC(C)(C)c2ccccc2)c1)S(C)(=O)=O [drawing 92] | 2 to 250 nM | 2 to 250 nM |  |  |
| CNC(=O)c1c(-c2ccc(F)cc2)nn2ccc(-c3cc(C(=O)NC4(c5ccc(F)cc5)CC4)ccc3C)cc12 | 2 to 250 nM | 2 to 250 nM |  |  |
| CCN(c1cn2nc(-c3ccc(F)cc3)c(C(=O)NC)c2cc1-c1cc(C(=O)NC2(c3ccccn3)CC2)ccc1C)S(C)(=O)=O | 2 to 250 nM | 2 to 250 nM |  |  |
| CNC(=O)c1c(-c2ccc(F)cc2)nn2ccc(N)cc12 | > 10000 nM | > 10000 nM |  |  |
| CNC(=O)c1c(-c2ccc(F)cc2)nn2cc(N)ccc12 | > 10000 nM | > 10000 nM |  |  |
| CNC(=O)c1c(-c2ccc(F)cc2)nn2cccc(N)c12 | > 10000 nM | > 10000 nM |  |  |
| CNC(=O)c1c(-c2ccc(F)cc2)nn2ccc(-c3cc(C(=O)NC4(c5ccc(F)cc5)CC4)c(OC)cc3C)c(F)c12 | 2 to 250 nM | 2 to 250 nM |  |  |
| CNC(=O)c1c(-c2ccc(F)cc2)nn2ccc(-c3cc(C(=O)NC4(c5cccc(F)c5)CC4)c(OC)cc3C)c(F)c12 | 2 to 250 nM | 2 to 250 nM |  |  |
| CNC(=O)c1c(-c2ccc(F)cc2)nc2ccc(-c3cccc(C(=O)NC(C)(C)C)c3)cn12 [drawing 77] | 250 to 1000 nM | 250 to 1000 nM |  |  |
| CNC(=O)c1c(-c2ccc(F)cc2)nn2ccc(-n3ccc(C(=O)NC(C)(C)c4ccccc4)c3)cc12 | 1000 to 10000 nM | > 10000 nM |  |  |
| CNC(=O)c1c2cc(-c3cc(C(=O)NC(C)(C)c4ccccc4)ccc3Cl)ccc2nn1-c1ccc(F)cc1 | 2 to 250 nM | 2 to 250 nM |  |  |
| CCc1ccccc1-c1ccc2c(C(=O)NC)c(-c3ccccc3)nn2c1 | > 10000 nM | > 10000 nM |  |  |
| CNC(=O)c1c(-c2ccc(F)cc2)nn2c(F)cc(-c3cc(C(=O)NC4(c5ccccc5)CC4)ccc3C)cc12 | 2 to 250 nM | 2 to 250 nM |  |  |
| CNC(=O)c1c2cc(-c3cccc(C(=O)NC(C)(C)C)c3)ccc2nn1-c1ccc(F)cc1 | 1000 to 10000 nM | 1000 to 10000 nM |  |  |
| CNC(=O)c1c(-c2ccc(F)cc2)nn2cc(N(CCOC)S(C)(=O)=O)c(-c3cccc(C(=O)NC(C)(C)c4ccccc4)c3)cc12 | 2 to 250 nM | 2 to 250 nM |  |  |
| CNC(=O)c1c(-c2ccc(F)cc2)nn2ccc(-c3cc(C(=O)NC4(c5ccccn5)CC4)ccc3C)cc12 [drawing 179] |  |  | 5.15 nM | 10 nM |
| CNC(=O)c1c(-c2ccccc2)nn2cc(N3CCOC3=O)ccc12 | > 10000 nM | > 10000 nM |  |  |
| CNC(=O)c1c(-c2ccc(F)cc2)nn2cc(-c3cccc(OC)c3)ccc12 | > 10000 nM | > 10000 nM |  |  |
| CNC(=O)c1c(-c2ccc(F)cc2)oc2ncc(-c3cc(C(=O)NC4(c5ccccn5)CC4)ccc3Cl)cc12 [drawing 113] | 2 to 250 nM | 2 to 250 nM |  |  |
| CNC(=O)c1c(-c2ccc(F)cc2)nn2cc(-c3ccc(OC)cc3)ccc12 | > 10000 nM | > 10000 nM |  |  |
| CNC(=O)c1c(-c2ccc(F)cc2)oc2ncc(-c3cccc(C(=O)NC(C)(C)C)c3)cc12 | 2 to 250 nM | 2 to 250 nM |  |  |
| CNC(=O)c1c(-c2ccc(F)cc2)nn2ccc(-c3cc(C(=O)NC4(c5ncccn5)CC4)c(OC)cc3C)c(F)c12 | 2 to 250 nM | 2 to 250 nM |  |  |
| CNC(=O)c1c(-c2ccc(F)cc2)sc2ccc(-c3cccc(C(=O)NC4(c5ccccc5)CC4)c3)cc12 | 250 to 1000 nM | 1000 to 10000 nM |  |  |

| SMILES | IC50 ([1]; Table 1) | EC50 (HCV replicon cells; Table 1) | IC50 ([1]; Table 2) | EC50 (HCV replicon cells; Table 2) |
| --- | --- | --- | --- | --- |
| CNC(=O)c1c(-c2ccc(F)cc2)nn2cc(N(CCO)S(C)(=O)=O)c(-c3cccc(C(=O)NC4(c5ccccn5)CC4)c3)cc12 [drawing 86] | 2 to 250 nM | 1000 to 10000 nM |  |  |
| CNC(=O)c1c2cc(-c3cc(C(=O)NC(C)(C)c4ccccc4)ccc3C)ccc2nn1-c1ccc(F)cc1 | 2 to 250 nM | 2 to 250 nM |  |  |
| CNC(=O)c1c(-c2ccc(F)cc2)nn2cc(N(CCO)S(C)(=O)=O)c(-c3cccc(C(=O)NC(C)(C)c4ccccc4)c3)cc12 | 2 to 250 nM | 2 to 250 nM |  |  |
| CNC(=O)c1c(-c2ccc(F)cc2)nn2ccc(-c3cc(C(=O)NC4(C)CC4)c(OC)cc3C)c(F)c12 | 2 to 250 nM | 2 to 250 nM |  |  |
| CNC(=O)c1c(-c2ccc(F)cc2)oc2ccc(-c3cccc(C(=O)NC4(c5ccccn5)CC4)c3)nc12 | 1000 to 10000 nM | 250 to 1000 nM |  |  |
| CNC(=O)c1c(-c2ccc(F)cc2)nn2ccc(-c3cc(C(=O)NC4(c5ccccc5)CCC4)ccc3C)cc12 | 2 to 250 nM | 2 to 250 nM |  |  |
| CNC(=O)c1c(-c2ccc(F)cc2)nn2cc(N(CCO)S(C)(=O)=O)ccc12 | > 10000 nM | > 10000 nM |  |  |
| CNC(=O)c1c(-c2ccccc2)nn2cc(-c3ccccc3CO)ccc12 | > 10000 nM | > 10000 nM |  |  |
| CNC(=O)c1c(-c2ccc(F)cc2)nn2ccc(-c3cc(C(=O)NC4(c5ccccc5)CC4)ccc3C)cc12 [drawing 173] |  |  | 4.75 nM | 2.37 nM |
| CNC(=O)c1c(-c2ccc(F)cc2)nc2ccc(-c3ccc(-c4ccccc4)c(C(=O)NCC(C)C)c3)cn12 | > 500 nM | 250 to 1000 nM |  |  |
| CCN(c1cn2nc(-c3ccc(F)cc3)c(C(=O)NC)c2cc1C1CC1)S(C)(=O)=O | 2 to 250 nM | 2 to 250 nM |  |  |
| CNC(=O)c1c(-c2ccc(F)cc2)nn2ccc(NS(=O)(=O)c3ccc(OC(F)(F)F)cc3)cc12 | > 10000 nM | > 10000 nM |  |  |
| CNC(=O)c1c(-c2ccc(F)cc2)nn2ccc(-n3cc(C(=O)NC(C)(C)c4ccccc4)ccc3=O)cc12 | 2 to 250 nM | 250 to 1000 nM |  |  |
| CNC(=O)c1c(-c2ccc(F)cc2)oc2ccc(-c3cc(C(=O)NC4(c5ccccn5)CC4)ccc3C)nc12 | 2 to 250 nM | 2 to 250 nM |  |  |
| CNC(=O)c1c(-c2ccc(F)cc2)nn2ccc(-c3cc(C(=O)NC4(c5ccccn5)CC4)ccc3C)c(F)c12 [drawing 177] |  |  | 5 nM | 7.15 nM |
| CCN(c1cn2nc(-c3ccc(F)cc3)c(C(=O)NC)c2cc1-c1cc(C(=O)NC2(c3ccc(F)cc3)CC2)ccc1C)S(C)(=O)=O | 2 to 250 nM | 2 to 250 nM |  |  |
| CNC(=O)c1c(-c2ccc(F)cc2)oc2ncc(-c3cc(C(=O)NC4(c5ccccn5)CC4)ccc3C)cc12 [drawing 116] | 2 to 250 nM | 2 to 250 nM |  |  |
| CNC(=O)c1c(-c2ccc(F)cc2)sc2ccc(-c3cccc(C(=O)NC4(c5ccccc5)CCC4)c3)cc12 | 2 to 250 nM | 2 to 250 nM |  |  |
| CNC(=O)c1c(-c2ccc(F)cc2)oc2ncc(-c3cccc(C(=O)NC(C)(C)c4ccccc4)c3)cc12 | 2 to 250 nM | 2 to 250 nM |  |  |
| CNC(=O)c1c(-c2ccc(F)cc2)nn2cc(F)c(-c3cc(C(=O)NC4(c5ccccc5)CC4)ccc3C)cc12 | 2 to 250 nM | 2 to 250 nM |  |  |
| CNC(=O)c1c(-c2ccc(F)cc2)nn2cccc(NC(=O)OC(C)(C)C)c12 | > 10000 nM | > 10000 nM |  |  |
| CNC(=O)c1c(-c2ccc(F)cc2)nn2ccc(-c3cc(C(=O)NC(C)(C)C)ccc3OC)cc12 | 2 to 250 nM | 250 to 1000 nM |  |  |
| CNC(=O)c1c(-c2ccccc2)nn2cc(-c3ccccc3OC)ccc12 | 1000 to 10000 nM | 1000 to 10000 nM |  |  |
| CNC(=O)c1c(-c2ccc(F)cc2)nn2cc(NC(=O)C(C)(C)C)c(C3CC3)cc12 | > 10000 nM | > 10000 nM |  |  |
| CNC(=O)c1c(-c2ccc(F)cc2)nn2ccc(NS(=O)(=O)c3cccc(OC)c3)cc12 | > 10000 nM | > 10000 nM |  |  |
| CNC(=O)c1c(-c2ccc(F)cc2)nn2ccc(-c3cc(C(=O)NC4(c5ccccn5)CC4)ccc3C)cc12 [drawing 88] | 2 to 250 nM | 2 to 250 nM |  |  |
